These results are taken from patent US7335723B2, “Melanin-concentrating hormone antagonists” (priority 2001, dated 2008).

As usually defined, the EC50 is the midpoint of the concentration-response curve. For orientation: IC50 means the point on the concentration scale where inhibition reaches its midpoint. Low values mean greater potency in that assay, high ones weaker potency in that assay.

The target of one experiment is rat MCH-1R (Rattus norvegicus, UniProt P97639). The experiment in a line: Aequorin bioluminescence functional assay, MCH-1R agonist activity. The settings on record: for MCH-1R Agonist Activation %: 293-AEQ17 cells expressing rat MCH-1R.
rat MCH-1R, sequence (P97639 whole entry): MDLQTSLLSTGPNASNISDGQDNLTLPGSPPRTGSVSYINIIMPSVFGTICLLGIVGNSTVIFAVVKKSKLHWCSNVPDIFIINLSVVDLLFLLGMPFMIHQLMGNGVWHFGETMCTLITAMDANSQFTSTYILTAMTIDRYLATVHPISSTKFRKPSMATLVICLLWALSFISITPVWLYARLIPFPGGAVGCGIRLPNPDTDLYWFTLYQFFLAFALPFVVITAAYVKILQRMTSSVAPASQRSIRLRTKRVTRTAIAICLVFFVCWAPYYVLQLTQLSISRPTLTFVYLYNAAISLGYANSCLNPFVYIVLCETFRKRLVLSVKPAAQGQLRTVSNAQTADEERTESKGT
The next experiment addresses human MCH-1R (Homo sapiens, UniProt Q99705). The experiment in a line: MCH-1R binding assay, inhibition of [125I]-human MCH binding to membranes.
A further experiment concerns the target human MCH-2R (Homo sapiens, UniProt Q969V1). The experiment can be described thus: Aequorin bioluminescence functional assay, MCH-2R agonist activity. Particulars: for MCH-2R Agonist Activation %: 293-AEQ17 cells expressing human MCH-2R.

SMILES strings stand for the structures. Where a SMILES comes first, the peptide text is derived from it. Bridges are numbered along the chain shown (N, C = ends). [ ]: non-standard residue; d: D form. The star is where a group is joined. Pentanoyl(5-guanidino) = NC(N)=NCCCCC(=O)*; dNle = CCCC[C@@H](N)C(=O)O; Abu = CC[C@H](N)C(=O)O; Ava = NCCCCC(=O)O; βAla = NCCC(=O)O

human MCH-2R, sequence (Q969V1 whole entry): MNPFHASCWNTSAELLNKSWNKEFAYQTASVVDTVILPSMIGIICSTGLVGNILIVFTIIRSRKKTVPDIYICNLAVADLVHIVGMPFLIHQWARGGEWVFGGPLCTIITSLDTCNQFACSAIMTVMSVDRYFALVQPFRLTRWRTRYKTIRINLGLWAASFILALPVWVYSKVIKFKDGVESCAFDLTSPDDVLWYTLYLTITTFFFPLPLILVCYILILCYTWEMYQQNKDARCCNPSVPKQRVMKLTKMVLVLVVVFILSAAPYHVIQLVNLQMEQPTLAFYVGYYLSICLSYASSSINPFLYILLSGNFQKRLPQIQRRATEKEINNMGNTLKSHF
human MCH-1R, sequence (Q99705 whole entry): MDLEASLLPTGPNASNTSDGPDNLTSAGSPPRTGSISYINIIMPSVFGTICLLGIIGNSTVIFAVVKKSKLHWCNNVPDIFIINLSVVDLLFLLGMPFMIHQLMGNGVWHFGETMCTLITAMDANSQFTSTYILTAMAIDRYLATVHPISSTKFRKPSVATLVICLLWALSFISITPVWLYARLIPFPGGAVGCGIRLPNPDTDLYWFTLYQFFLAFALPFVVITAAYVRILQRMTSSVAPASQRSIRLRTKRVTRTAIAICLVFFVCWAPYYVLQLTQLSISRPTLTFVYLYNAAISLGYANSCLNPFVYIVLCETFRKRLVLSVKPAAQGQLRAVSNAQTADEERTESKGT
Procedure for human MCH-1R: Cell membranes were prepared on ice. Each T-75 flask was rinsed twice with 10 ml of Enzyme-free Cell Dissociation Buffer (Specialty Media, Lavallette, N.J.), and the cell monolayer was detached in an additional 10 ml of Enzyme-free Cell Dissociation Buffer by incubation at room temperature for 10 minutes. Dissociated cells were centrifuged (500×g for 10 minutes at 4° C.), resuspended in 5 ml homogenization buffer (10 mM Tris-HCl, pH 7.4, 0.01 mM Pefabloc, 10 μM phosphoramidon, 40 μg/ml bacitracin) and then homogenized using a glass homogenizer (10-15 strokes). The homogenate was centrifuged for 10 minutes (1,000×g at 4° C.). The resulting supernatant was then centrifuged at 38,700×g for 15 minutes at 4° C. Pelleted membranes were resuspended (passed through 25 gauge needle 5 times), snap-frozen on liquid nitrogen, and stored at −80° C. until use.
Bound radioligand was separated by rapid vacuum filtration (Packard Filtermate 96-well cell harvester) through GF/C filters pretreated for 1 hour with 1% polyethylenimine. After application of the membrane suspension to the filter, the filters were washed 3 times with 3 ml each of ice-cold 50 mM Tris-HCl, pH 7.4, 10 mM MgCl2, 2 mM EDTA, 0.04% Tween 20 and the bound radioactivity on the filters was quantitated by scintillation counting (TopCount device).
For the SPA-based assay, WGA-PVT beads (NEN Life Sciences Products) were resuspended in Dulbecco's PBS with calcium and magnesium (500 mg beads in 4 ml PBS). […] The suspension was mixed gently for 20 minutes, 12.3 ml of assay buffer and protease inhibitors were added (final concentration given): 2 μg/ml leupeptin, 10 μM phosphoramidon, 40 μg/ml bacitracin, 5 μg/ml aprotinin, 0.1 mM Pefabloc.
Coated beads were kept on ice until use.

As for `CSCC[C@@H]1NC(=O)[C@@H](NC(=O)[C@H](CCCNC(=N)N)NC(C)=O)CSSC[C@@H](C(N)=O)NC(=O)[C@@H]2CCCN2C(=O)[C@H](CCCNC(=N)N)NC(=O)[C@H](Cc2ccc(O)cc2)NC(=O)[C@H](C(C)C)NC(=O)[C@H](CCCNC(=N)N)NC(=O)CNC(=O)[C@H](CC(C)C)NC1=O` [SEQ. ID. NO. 2], on rat MCH-1R, a half-maximal effect (EC50) was put at 0.02 µM and the “MCH-1R Agonist Activation %” value was 99%.
On to `CSCC[C@@H]1NC(=O)[C@@H](NC(=O)[C@@H](CCCNC(=N)N)NC(C)=O)CSSC[C@@H](C(N)=O)NC(=O)[C@@H]2CCCN2C(=O)[C@H](CCCNC(=N)N)NC(=O)[C@H](Cc2ccc(O)cc2)NC(=O)[C@H](C(C)C)NC(=O)[C@H](CCCNC(=N)N)NC(=O)CCCCNC(=O)CCCCNC1=O` [SEQ. ID. NO. 4] (Ac-[dR]CM[Ava][Ava]RVYRPC-NH2; disulfide 2-11 (inferred); C-terminus assumed), for which, on rat MCH-1R, the EC50 stood at 1.08 µM and the “MCH-1R Agonist Activation %” value is 72%. For the same molecule, the IC50 at human MCH-1R was found to be 0.0037 µM. Also, at human MCH-2R, the EC50 is more than 10 µM and the “MCH-2R Agonist Activation %” value was 7%.
Consider `CSCC[C@@H]1NC(=O)[C@@H](NC(=O)CCCCNC(=N)N)CSSC[C@@H](C(N)=O)NC(=O)[C@@H]2CCCN2C(=O)[C@H](CCCNC(=N)N)NC(=O)[C@H](Cc2ccc(O)cc2)NC(=O)[C@H](C(C)C)NC(=O)[C@H](CCCNC(=N)N)NC(=O)CCCCNC(=O)CCCCNC1=O` [SEQ. ID. NO. 5] ({Pentanoyl(5-guanidino)}-CM[Ava][Ava]RVYRPC-NH2; disulfide 1-10 (inferred); C-terminus assumed), for which, on rat MCH-1R, the EC50 is 0.38 µM and the “MCH-1R Agonist Activation %” value was 10%. The same molecule returned an IC50 at human MCH-1R of 0.0063 µM. Moreover, on human MCH-2R, the EC50 was more than 10 µM and the “MCH-2R Agonist Activation %” value came to 31%.
Regarding `CSCC[C@@H]1NC(=O)[C@@H](NC(=O)CCCCNC(=N)N)CSSC[C@@H](C(N)=O)NC(=O)CNC(=O)[C@H](Cc2ccc(O)cc2)NC(=O)[C@H](C(C)C)NC(=O)[C@H](CCCNC(=N)N)NC(=O)CCCCNC(=O)CCCCNC1=O` [SEQ. ID. NO. 6] ({Pentanoyl(5-guanidino)}-CM[Ava][Ava]RVYGC-NH2; disulfide 1-9), on rat MCH-1R, the EC50 is more than 10 µM and the “MCH-1R Agonist Activation %” value was 0.1%. The IC50 on human MCH-1R is more than 1 µM. Besides, on human MCH-2R, the EC50 is more than 10 µM and the “MCH-2R Agonist Activation %” value is 25%.
`CSCC[C@@H]1NC(=O)[C@@H](NC(=O)[C@H](CCCNC(=N)N)NC(C)=O)CSSC[C@@H](C(N)=O)NC(=O)CCCCNC(=O)CCCCNC(=O)[C@H](Cc2ccc(O)cc2)NC(=O)[C@H](C(C)C)NC(=O)[C@H](CCCNC(=N)N)NC(=O)CNC(=O)[C@H](CC(C)C)NC1=O` [SEQ. ID. NO. 8] (Ac-RCMLGRVY[Ava][Ava]C-NH2; disulfide 2-11; C-terminus assumed): at rat MCH-1R, it took 0.406 µM to reach a half-maximal effect (EC50) and the “MCH-1R Agonist Activation %” value came to 75%. At human MCH-1R, this molecule gave an IC50 of 0.0066 µM. This molecule also registered an EC50 on human MCH-2R of more than 10 µM.
Turning to `CSCC[C@@H]1NC(=O)[C@@H](NC(=O)[C@@H](CCCNC(=N)N)NC(C)=O)CSSC[C@@H](C(N)=O)NC(=O)CCCCNC(=O)CCCCNC(=O)[C@H](Cc2ccc(O)cc2)NC(=O)[C@H](C(C)C)NC(=O)[C@H](CCCNC(=N)N)NC(=O)CNC(=O)[C@H](CC(C)C)NC1=O` [SEQ. ID. NO. 10] (Ac-[dR]CMLGRVY[Ava][Ava]C-NH2; disulfide 2-11 (inferred); C-terminus assumed), on rat MCH-1R, the EC50 came out at 1.3 µM and the “MCH-1R Agonist Activation %” value is 28%. For the same molecule, the half-inhibitory concentration (IC50) on human MCH-1R stood at 0.0195 µM. Further, on human MCH-2R, the EC50 is more than 10 µM and the “MCH-2R Agonist Activation %” value is reported as 18%.
On to `CC[C@@H]1NC(=O)[C@@H](NC(=O)CCCCNC(=N)N)CSSC[C@@H](C(N)=O)NC(=O)CCCCNC(=O)CCCCNC(=O)[C@H](Cc2ccc(O)cc2)NC(=O)[C@H](C(C)C)NC(=O)[C@H](CCCNC(=N)N)NC(=O)CNC(=O)[C@H](CC(C)C)NC1=O` [SEQ. ID. NO. 17] ({Pentanoyl(5-guanidino)}-C[Abu]LGRVY[Ava][Ava]C-NH2; disulfide 1-10; C-terminus assumed), for which, at rat MCH-1R, the half-maximal effective concentration (EC50) is more than 10 µM and the “MCH-1R Agonist Activation %” value is 3%. On human MCH-1R, this molecule displayed an IC50 of 0.83 µM. Moreover, at human MCH-2R, the EC50 is more than 10 µM and the “MCH-2R Agonist Activation %” value was 7%.
`CC(=O)N[C@@H](CCCNC(=N)N)C(=O)N[C@H]1CSSC[C@@H](C(N)=O)NC(=O)CCCCNC(=O)CCCCNC(=O)[C@H](Cc2ccc(O)cc2)NC(=O)[C@H](C(C)C)NC(=O)[C@H](CCCNC(=N)N)NC(=O)CNC(=O)[C@H](CC(C)C)NC(=O)[C@H](C)NC1=O` [SEQ. ID. NO. 22] (Ac-RCALGRVY[Ava][Ava]C-NH2; disulfide 2-11; C-terminus assumed): at rat MCH-1R, the EC50 is more than 10 µM and the “MCH-1R Agonist Activation %” value came to 0.1%. On human MCH-1R, this molecule yielded an IC50 of more than 1 µM. At human MCH-2R, the EC50 amounted to 1.83 µM and the “MCH-2R Agonist Activation %” value turned out to be 25%.
Regarding `CSCC[C@@H]1NC(=O)[C@@H](NC(=O)CCCCNC(=N)N)CSSC[C@@H](C(N)=O)NC(=O)CCCCNC(=O)CCCCNC(=O)[C@H](Cc2ccc(O)cc2)NC(=O)[C@H](C(C)C)NC(=O)[C@H](CCCNC(=N)N)NC(=O)CNC1=O` [SEQ. ID. NO. 23] ({Pentanoyl(5-guanidino)}-CMGRVY[Ava][Ava]C-NH2; disulfide 1-9), at rat MCH-1R, the EC50 was more than 10 µM and the “MCH-1R Agonist Activation %” value turned out to be 0.1%. For the same molecule, at human MCH-1R, the IC50 is more than 1 µM. In addition, at human MCH-2R, the EC50 is more than 10 µM and the “MCH-2R Agonist Activation %” value stood at 26%.
On to `CSCC[C@@H]1NC(=O)[C@H](NC(=O)[C@H](CCCNC(=N)N)NC(C)=O)CSSC[C@@H](C(N)=O)NC(=O)CCCCNC(=O)CCCCNC(=O)[C@H](Cc2ccc(O)cc2)NC(=O)[C@H](C(C)C)NC(=O)[C@H](CCCNC(=N)N)NC(=O)CNC(=O)[C@H](CC(C)C)NC1=O` [SEQ. ID. NO. 24] (Ac-R[dC]MLGRVY[Ava][Ava]C-NH2; disulfide 2-11; C-terminus assumed), for which, on rat MCH-1R, the EC50 is more than 10 µM and the “MCH-1R Agonist Activation %” value worked out at 3%. Moreover, the IC50 at human MCH-1R amounted to 0.35 µM. Besides, at human MCH-2R, the EC50 was more than 10 µM and the “MCH-2R Agonist Activation %” value is 17%.
`CSCC[C@@H]1NC(=O)[C@H](NC(=O)CCCCNC(=N)N)CSSC[C@@H](C(N)=O)NC(=O)CCCCNC(=O)CCCCNC(=O)[C@H](Cc2ccc(O)cc2)NC(=O)[C@H](C(C)C)NC(=O)[C@H](CCCNC(=N)N)NC(=O)CNC(=O)[C@H](CC(C)C)NC1=O` [SEQ. ID. NO. 25]: at rat MCH-1R, the EC50 is more than 10 µM and the “MCH-1R Agonist Activation %” value is on record as 0.1%. The same molecule came in with an IC50 at human MCH-1R of 0.066 µM. Moreover, at human MCH-2R, the EC50 is more than 10 µM and the “MCH-2R Agonist Activation %” value is 25%.
In the case of `CCCC[C@H]1NC(=O)[C@H](CC(C)C)NC(=O)[C@H](CCSC)NC(=O)[C@@H](NC(=O)[C@H](CCCNC(=N)N)NC(C)=O)CSSC[C@@H](C(N)=O)NC(=O)CCCCNC(=O)CCCCNC(=O)[C@H](Cc2ccc(O)cc2)NC(=O)[C@H](C(C)C)NC(=O)[C@H](CCCNC(=N)N)NC1=O` [SEQ. ID. NO. 26] (Ac-RCML[dNle]RVY[Ava][Ava]C-NH2; disulfide 2-11; C-terminus assumed), at rat MCH-1R, the EC50 was determined as 0.544 µM and the “MCH-1R Agonist Activation %” value is 43%. The same molecule showed an IC50 on human MCH-1R of 0.223 µM. Also, on human MCH-2R, the EC50 is more than 10 µM and the “MCH-2R Agonist Activation %” value was 91%.
For the molecule `CSCC[C@@H]1NC(=O)[C@@H](NC(=O)[C@H](CCCNC(=N)N)NC(C)=O)CSSC[C@@H](C(N)=O)NC(=O)CCCCNC(=O)CCCCNC(=O)[C@H](Cc2ccc(O)cc2)NC(=O)[C@H](C(C)C)NC(=O)[C@H](CCCNC(=N)N)NC(=O)[C@H]2CCCN2C(=O)[C@H](CC(C)C)NC1=O` [SEQ. ID. NO. 28] (Ac-RCML[dP]RVY[Ava][Ava]C-NH2; disulfide 2-11 (inferred); C-terminus assumed), the IC50 at human MCH-1R is 0.7 µM. On human MCH-2R, the EC50 was more than 10 µM and the “MCH-2R Agonist Activation %” value was determined as 7%.
`CSCC[C@@H]1NC(=O)[C@@H](NC(=O)[C@H](CCCNC(=N)N)NC(C)=O)CSSC[C@@H](C(N)=O)NC(=O)CCNC(=O)CCNC(=O)[C@H](Cc2ccc(O)cc2)NC(=O)[C@H](C(C)C)NC(=O)[C@H](CCCNC(=N)N)NC(=O)CCNC(=O)CCNC1=O` [SEQ. ID. NO. 31] (Ac-RCM[βAla][βAla]RVY[βAla][βAla]C-NH2; disulfide 2-11): at rat MCH-1R, the EC50 is more than 10 µM and the “MCH-1R Agonist Activation %” value is on record as 3%. For the same molecule, the “MCH-1R Binding, % @ concentration” value at human MCH-1R (@ 10 (concentration unit not given), in the IC50 (nM) column) turned out to be 76% @ 10. Further, on human MCH-2R, the concentration giving a half-maximal response (EC50) was more than 10 µM and the “MCH-2R Agonist Activation %” value came to 6%.
On to `C[C@@H]1NC(=O)[C@@H](NC(=O)CCCCNC(=N)N)CSSC[C@@H](C(=O)O)NC(=O)CCCCNC(=O)CCCCNC(=O)[C@H](Cc2ccc(O)cc2)NC(=O)[C@H](C)NC(=O)[C@H](CCCNC(=N)N)NC(=O)CCCCNC(=O)CCCCNC1=O` [SEQ. ID. NO. 34] ({Pentanoyl(5-guanidino)}-CA[Ava][Ava]RAY[Ava][Ava]C-OH; disulfide 1-10), for which, on rat MCH-1R, the EC50 was more than 10 µM and the “MCH-1R Agonist Activation %” value is 0.1%. This molecule gave an IC50 on human MCH-1R of more than 1 µM. On human MCH-2R, the EC50 was more than 10 µM and the “MCH-2R Agonist Activation %” value is on record as 28%.
`CSCC[C@@H]1NC(=O)[C@@H](NC(=O)[C@H](CCCNC(=N)N)NC(=O)[C@H](CC(C)C)NC(=O)[C@H](CCSC)NC(=O)[C@H](CC(=O)O)NC(=O)[C@H](Cc2ccccc2)NC(=O)[C@@H](N)CC(=O)O)CSSC[C@@H](C(=O)N[C@@H](Cc2c[nH]c3ccccc23)C(=O)N[C@@H](CCC(N)=O)C(=O)N[C@H](C(=O)O)C(C)C)NC(=O)[C@@H]2CCCN2C(=O)[C@H](CCCNC(=N)N)NC(=O)[C@H](Cc2ccc(O)cc2)NC(=O)[C@H](C(C)C)NC(=O)[C@H](CCCNC(=N)N)NC(=O)CNC(=O)[C@H](CC(C)C)NC1=O` [hMCH, reference compound]: at rat MCH-1R, it took 0.0309 µM to reach a half-maximal effect (EC50) and the “MCH-1R Agonist Activation %” value is reported as 100%. In addition, the “MCH-2R Agonist Activation %” value on human MCH-2R amounted to 100%.
